One assay concerns the target human plasma kallikrein (Homo sapiens, UniProt P03952). Briefly: Kallikrein inhibition assay utilizing a quenched AMC peptide substrate (FLINT). Format: biochemical. Particulars: 11-point, 3-fold serial dilution, top 1 μM; 30 min preincubation; 2 nM kallikrein; 50 μM Z-Gly-Pro-Arg-AMC; kinetic reads over 30 min. In short, it runs like this:
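Human plasma kallikrein (2 nM final) was pre-incubated 30 min at room temperature with compound (11-point 3-fold series, top 1 μM, 2% DMSO) in Tris pH 7.5, NaCl, CaCl2, BSA, CHAPS buffer. Reaction started with 50 μM Z-Gly-Pro-Arg-AMC (KM 40 μM), and fluorescence (340/440 nm) was read kinetically over 30 min. IC50 came from a 4-parameter logistic fit.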

A further assay has as its target Factor XIa (Homo sapiens, UniProt P03951). The experiment in a line: Factor XIa inhibition assay utilizing a fluorophore-quencher pair peptide substrate (FLINT). The assay is classed as biochemical. The following applies: 11-point, 3-fold serial dilution, top 100 nM; 30 min preincubation; 15 μM 5Fam-KLTRAETV-K5Tamra substrate; kinetic reads over 30 min; read-out: FXIa Inhibition IC50. In short, it runs like this: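 FXIa ([…]) preincubated 30 min with compound (11-point, 3-fold, top 100 nM, 2% DMSO) in Tris pH 7.5, NaCl, CaCl2, BSA, CHAPS; 15 μM 5Fam-KLTRAETV-K5Tamra substrate then added. Fluorescence (485/520 nm) read kinetically over 30 min at room temperature; IC50 by 4-parameter fit.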

human plasma kallikrein, sequence (P03952 391-638 limits assumed): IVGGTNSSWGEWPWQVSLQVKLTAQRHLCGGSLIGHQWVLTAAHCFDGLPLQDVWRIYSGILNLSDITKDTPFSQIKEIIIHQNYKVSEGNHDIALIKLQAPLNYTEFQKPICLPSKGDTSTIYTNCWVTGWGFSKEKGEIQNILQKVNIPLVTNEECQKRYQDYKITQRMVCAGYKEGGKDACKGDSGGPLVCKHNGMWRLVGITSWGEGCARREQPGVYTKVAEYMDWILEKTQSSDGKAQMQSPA
human plasma kallikrein, sequence (P03952 20-390 partner limits assumed): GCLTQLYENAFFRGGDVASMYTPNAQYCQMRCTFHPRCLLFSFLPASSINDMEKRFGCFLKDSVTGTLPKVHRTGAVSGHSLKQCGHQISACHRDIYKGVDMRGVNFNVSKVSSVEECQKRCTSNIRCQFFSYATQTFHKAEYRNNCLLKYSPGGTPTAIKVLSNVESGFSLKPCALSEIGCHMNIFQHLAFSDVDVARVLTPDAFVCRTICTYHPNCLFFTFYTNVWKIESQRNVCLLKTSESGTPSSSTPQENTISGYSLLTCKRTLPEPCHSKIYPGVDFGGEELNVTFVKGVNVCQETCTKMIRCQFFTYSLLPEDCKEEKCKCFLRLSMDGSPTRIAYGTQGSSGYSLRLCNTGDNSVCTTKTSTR
Factor XIa, sequence (P03951 388-625 limits assumed): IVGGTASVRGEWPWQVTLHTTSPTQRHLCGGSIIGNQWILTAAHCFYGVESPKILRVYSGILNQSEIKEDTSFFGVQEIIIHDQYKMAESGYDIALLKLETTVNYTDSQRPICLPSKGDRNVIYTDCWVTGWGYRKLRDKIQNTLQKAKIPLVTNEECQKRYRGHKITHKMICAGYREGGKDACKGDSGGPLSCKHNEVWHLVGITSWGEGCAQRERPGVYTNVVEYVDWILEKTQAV
Factor XIa, sequence (P03951 19-387 partner limits assumed): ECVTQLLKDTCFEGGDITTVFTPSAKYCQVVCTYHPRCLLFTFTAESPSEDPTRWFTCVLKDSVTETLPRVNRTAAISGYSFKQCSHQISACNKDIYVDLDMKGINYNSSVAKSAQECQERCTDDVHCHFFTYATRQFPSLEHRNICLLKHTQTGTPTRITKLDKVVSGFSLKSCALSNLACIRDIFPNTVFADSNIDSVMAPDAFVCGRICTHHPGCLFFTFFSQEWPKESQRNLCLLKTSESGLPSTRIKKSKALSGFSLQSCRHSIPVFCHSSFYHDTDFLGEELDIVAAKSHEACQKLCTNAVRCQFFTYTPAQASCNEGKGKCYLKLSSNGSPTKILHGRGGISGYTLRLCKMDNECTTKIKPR

With `O=C(Nc1ccc(-c2n[nH]c(=O)o2)cc1)[C@@H]1CCC2CC(c3c(-n4cnnn4)ccc(Cl)c3F)=CC(=O)N21` (mixture of isomers) [ID No. 75, (3S)-7-[3-Chloro-2-fluoro-6-(tetrazol-1-yl)phenyl]-5-oxo-N-[4-(2-oxo-3H-1,3,4-oxadiazol-5-yl)phenyl]-2,3,8,8a-tetrahydro-1H-indolizine-3-carboxamide], the values for the IC50 on human plasma kallikrein and at Factor XIa were 11.2 nM and 1.8 nM, respectively.

For `O=C(Nc1ccc2c(c1)C(F)(F)C(=O)N2)[C@@H]1CC[C@@H]2CC(c3c(-n4cnnn4)ccc(Cl)c3F)=CC(=O)N21` [ID No. 15, (3S,8aR)-7-(3-Chloro-2-fluoro-6-(1H-tetrazol-1-yl)phenyl)-N-(3,3-difluoro-2-oxoindolin-5-yl)-5-oxo-1,2,3,5,8,8a-hexahydroindolizine-3-carboxamide], the figures for the IC50 on human plasma kallikrein and at Factor XIa were 55.7 nM and 36.8 nM, respectively.

Take `Cn1nc2ccc(NC(=O)[C@@H]3CC[C@@H]4CC(c5c(-n6cnnn6)ccc(Cl)c5F)=CC(=O)N43)cc2n1` [ID No. 16, (3S,8aR)-7-(3-Chloro-2-fluoro-6-(1H-tetrazol-1-yl)phenyl)-N-(2-methyl-2H-benzo[d][1,2,3]triazol-5-yl)-5-oxo-1,2,3,5,8,8a-hexahydroindolizine-3-carboxamide]: the IC50 (commonly the point on the concentration scale where inhibition reaches its midpoint) against human plasma kallikrein turned out to be 45.3 nM; at Factor XIa, 25 nM.

Take `CN(C)c1ccnc2ccc(NC(=O)C3CCC4CC(c5c(-n6cnnn6)ccc(Cl)c5F)=CC(=O)N43)cc12` (centres unmarked) [compound 87]: the IC50 was 64.9 nM on human plasma kallikrein and 20.8 nM at Factor XIa.

For `Cn1nc2ccc(NC(=O)C3CCC4CC(c5c(-n6cc(C(F)(F)F)nn6)ccc(Cl)c5F)=CC(=O)N43)cc2n1` (centres unmarked) [compound 106], the IC50 on human plasma kallikrein is 497 nM; on Factor XIa it was over 50 nM.

Regarding `Cn1cc2cc(NC(=O)[C@@H]3CC[C@@H]4CC(c5c(-n6cnnn6)ccc(Cl)c5F)=CC(=O)N43)ccc2n1` [ID No. 19, (3S,8aR)-7-(3-Chloro-2-fluoro-6-(1H-tetrazol-1-yl)phenyl)-N-(2-methyl-2H-indazol-5-yl)-5-oxo-1,2,3,5,8,8a-hexahydroindolizine-3-carboxamide], the results for the IC50 on human plasma kallikrein and on Factor XIa were 169 nM and 39.4 nM, respectively.

For the compound `CN(C)c1ccnc2ccc(NC(=O)C3CCC4CC(c5c(-n6cc(C(F)(F)F)nn6)ccc(Cl)c5F)=CC(=O)N43)cc12` (centres unmarked) [compound 89], the IC50 is 637 nM against human plasma kallikrein and over 50 nM at Factor XIa.

Consider `O=C(O)c1ccc(NC(=O)[C@@H]2CCC3CC(c4c(-n5cnnn5)ccc(Cl)c4F)=CC(=O)N32)cc1F` (mixture of isomers) [ID No. 58, 4-[[(3S)-7-[3-Chloro-2-fluoro-6-(tetrazol-1-yl)phenyl]-5-oxo-2,3,8,8a-tetrahydro-1H-indolizine-3-carbonyl]amino]-2-fluoro-benzoic acid], for which the 50% inhibitory concentration (IC50) was determined as 107 nM on human plasma kallikrein and 1.2 nM at Factor XIa.

Regarding `Cc1nc(-c2ccc(NC(=O)[C@@H]3CC[C@@H]4CC(c5c(-n6cnnn6)ccc(Cl)c5F)=CC(=O)N43)cc2)co1` [ID No. 20, (3S,8aR)-7-(3-Chloro-2-fluoro-6-(1H-tetrazol-1-yl)phenyl)-N-(4-(2-methyloxazol-4-yl)phenyl)-5-oxo-1,2,3,5,8,8a-hexahydroindolizine-3-carboxamide], the IC50 on human plasma kallikrein came out at 112 nM; at Factor XIa, 25.9 nM.

With `CN(O)C(=O)c1ccc(NC(=O)[C@@H]2CCC3CC(c4c(-n5cnnn5)ccc(Cl)c4F)=CC(=O)N32)cc1` (mixture of isomers) [ID No. 34, (3S)-7-(3-Chloro-2-fluoro-6-(1H-tetrazol-1-yl)phenyl)-N-(4-(hydroxy(methyl)carbamoyl)phenyl)-5-oxo-1,2,3,5,8,8a-hexahydroindolizine-3-carboxamide], the IC50 at human plasma kallikrein turned out to be 279 nM; on Factor XIa it was 36.3 nM.

Regarding `CO[C@H]1C[C@@H](C(=O)Nc2ccc3nccnc3c2)N2C(=O)C=C(c3c(-n4cnnn4)ccc(Cl)c3F)CC12` (mixture of isomers) [ID No. 28, (1S,3S)-7-[3-Chloro-2-fluoro-6-(tetrazol-1-yl)phenyl]-1-methoxy-5-oxo-N-quinoxalin-6-yl-2,3,8,8a-tetrahydro-1H-indolizine-3-carboxamide], the figures for the IC50 against human plasma kallikrein and at Factor XIa were 431 nM and about 189 nM, respectively.

In the case of `CC1C[C@@H](C(=O)Nc2ccc3n[nH]cc3c2)N2C(=O)C=C(c3c(-n4cnnn4)ccc(Cl)c3F)CC12` (mixture of isomers) [ID No. 84, (3S)-7-[3-Chloro-2-fluoro-6-(tetrazol-1-yl)phenyl]-N-(2H-indazol-5-yl)-1-methyl-5-oxo-2,3,8,8a-tetrahydro-1H-indolizine-3-carboxamide], the IC50 against human plasma kallikrein is 27.8 nM; on Factor XIa it was 19.3 nM.

Turning to `COCCn1cc2cc(NC(=O)C3CCC4CC(c5c(-n6cnnn6)ccc(Cl)c5F)=CC(=O)N43)ccc2n1` (single isomer, unassigned) [ID No. 3, (3S*)-7-(3-chloro-2-fluoro-6-(1H-tetrazol-1-yl)phenyl)-N-(2-(2-methoxyethyl)-2H-indazol-5-yl)-5-oxo-1,2,3,5,8,8a-hexahydroindolizine-3-carboxamide], the IC50 worked out at 35.6 nM against human plasma kallikrein and 6 nM on Factor XIa.

As to `COCCn1ncc2cc(NC(=O)[C@@H]3CCC4CC(c5c(-n6cnnn6)ccc(Cl)c5F)=CC(=O)N43)ccc21` (mixture of isomers) [ID No. 4, (3S)-7-(3-chloro-2-fluoro-6-(1H-tetrazol-1-yl)phenyl)-N-(1-(2-methoxyethyl)-1H-indazol-5-yl)-5-oxo-1,2,3,5,8,8a-hexahydroindolizine-3-carboxamide], the results for the IC50 against human plasma kallikrein and at Factor XIa were 106 nM and 26.9 nM, respectively.

`CN(C)c1ccnc2ccc(NC(=O)C3CCC4CC(c5c(-n6cc(Cl)nn6)ccc(Cl)c5F)=CC(=O)N43)cc12` (centres unmarked) [compound 88]: the IC50 at human plasma kallikrein is 160 nM; at Factor XIa it was over 50 nM.

Regarding `CC(O)c1nc2cc(NC(=O)[C@@H]3CCC4CC(c5c(-n6cnnn6)ccc(Cl)c5F)=CC(=O)N43)ccc2s1` (mixture of isomers) [compound 92], the IC50 was 50.4 nM against human plasma kallikrein and 33.5 nM on Factor XIa.

As for `O=C1Cc2cc(NC(=O)[C@@H]3CC[C@@H]4CC(c5c(-n6cnnn6)ccc(Cl)c5F)=CC(=O)N43)ccc2N1` [ID No. 12, (3S,8aR)-7-(3-Chloro-2-fluoro-6-(1H-tetrazol-1-yl)phenyl)-5-oxo-N-(2-oxoindolin-5-yl)-1,2,3,5,8,8a-hexahydroindolizine-3-carboxamide], the results for the IC50 against human plasma kallikrein and at Factor XIa were 71.7 nM and 18.2 nM, respectively.

For the compound `CO[C@@H]1C[C@@H](C(=O)Nc2ccc3nccnc3c2)N2C(=O)C=C(c3c(-n4cnnn4)ccc(Cl)c3F)CC12` (mixture of isomers) [ID No. 46, (1R,3S)-7-[3-Chloro-2-fluoro-6-(tetrazol-1-yl)phenyl]-1-methoxy-5-oxo-N-quinoxalin-6-yl-2,3,8,8a-tetrahydro-1H-indolizine-3-carboxamide], the IC50 against human plasma kallikrein was 12.3 nM; at Factor XIa, 5.3 nM.

For the compound `O=C(Nc1ccc2[nH]nnc2c1)[C@@H]1CC[C@@H]2CC(c3c(-n4cnnn4)ccc(Cl)c3F)=CC(=O)N21` [ID No. 21, (3S,8aR)—N-(1H-Benzo[d][1,2,3]triazol-5-yl)-7-(3-chloro-2-fluoro-6-(1H-tetrazol-1-yl)phenyl)-5-oxo-1,2,3,5,8,8a-hexahydroindolizine-3-carboxamide], the IC50 worked out at 37.4 nM against human plasma kallikrein and 9.1 nM on Factor XIa.

(Values after patent US12286429B2, “5-oxo-1,2,3,5,8,8a-hexahydroindolizine-3-carboxamide derivatives useful as a factor XIa inhibitors” (Janssen Pharmaceutica NV, priority 2021, dated 2025).)
